Data: patent publication EP0414533A1, “Use of iodopropargyl esters of alpha-amino acid derivatives as antimicrobial agents” (ROHM AND HAAS COMPANY, priority 1989, dated 1991)
≈ marks a conversion by molar mass, not a printed value. Read-outs that look alike come from different tables or passages of the source.

Columns and labels:
Botrytis cinerea (BOC) = test: In-vitro plant fungicide test; assay type: cell-based; details: Botrytis cinerea
Aspergillus niger (ANIG) = test: Minimum inhibitory concentration (MIC), broth two-fold serial dilution test; assay type: cell-based; details: Aspergillus niger, IIIB, trypticase soy broth (complex media); Table IIIb; read-out: MIC (F) ANIG
PSH = test: In-vitro plant fungicide test; assay type: cell-based; details: Table IVb, read-out: % Control at (ppm) indicated PSH
THREE FUNGI = test: MIC test against three fungi in Mycophile Broth, pH 5.0, read after 8 days (Table VII); assay type: cell-based; details: 192 h, serial dilutions from 50 ppm, read after 8 days of incubation
Septoria nodorum (SEP) = test: In-vitro plant fungicide test; assay type: cell-based; details: Parastagonospora nodorum
[1] = system: Staphylococcus aureus (SAUR); test: Minimum inhibitory concentration (MIC), broth two-fold serial dilution test; details: Staphylococcus aureus, IIIB, read-out: MIC (G+) SAUR, trypticase soy broth (complex media); Table IIIb
Escherichia coli (ECOL) = test: as above; details: Escherichia coli, IIIB, read-out: MIC (G-) ECOL, trypticase soy broth (complex media); Table IIIb
MON = test: In-vitro plant fungicide test; assay type: cell-based; details: Table IVb, read-out: % Control at (ppm) indicated MON
8 FUNGI = test: Microbicides secondary test against 8 fungi on Mycophile Agar at pH 5.0 (Table VI); assay type: cell-based; design: key: 1= no growth; 0= growth of the indicated fungi at dose indicated in ppm; details: for ANIG growth: Aspergillus niger; for APUL growth: Aureobasidium pullulans; for CGLO growth: Chaetomium globosum; for CRES growth: Cladosporium resinae; for GTRA growth: Gloeophyllum trabeum; for PFUN growth: Penicillium funiculosum; for RRUB growth: Rhodotorula rubra; for SSER growth: Sacharomyces cerevisiae
Text: The results of the minimum inhibitory concentration (MIC) tests of compounds of this invention are shown in Tables IIIa IIIb, IIIc, V, VI, VII, and VIII against the microorganisms shown in Table IX.

[2] = system: Xanthomonas campestris (XAN); test: In-vitro plant fungicide test; assay type: cell-based; details: Xanthomonas campestris; 25 ppm; Table IVa; read-out: % Control at 25 ppm XAN
Pythium ultimum (PYU) = test: In-vitro plant fungicide test; assay type: cell-based; details: Globisporangium ultimum
Piricularia oryzae (PIR) = test: microbe, parasite or virus in culture; assay type: cell-based
COL = test: In-vitro plant fungicide test; assay type: cell-based; details: Table IVb, read-out: % Control at (ppm) indicated COL
ALT = test: In-vitro plant fungicide test; assay type: cell-based; details: Table IVb, read-out: % Control at (ppm) indicated ALT
[3] = system: MIXED COOLING TOWER ALGAE; test: MIC test against mixed cooling tower algae; assay type: cell-based, green algae and blue-green bacteria; details: Table VIII
Procedure: The algae culture contains green algae and blue-green bacteria, and is obtained from a cooling tower in Spring House, Pennsylvania. The algae culture is grown in Allen's medium on a rotary shaker under flourescent room lighting. This culture is further diluted with Allen's medium and then added to the test vessel.

## CC(=O)NCC(=O)OCC#CI [Compound 28, N-acetylglycine iodopropargyl ester]
Botrytis cinerea (BOC); 1.5 ppm, Table IVb, read-out: % Control at (ppm) indicated BOC
  inhibition of growth at 1.5 ppm: 0%
Botrytis cinerea (BOC); 6 ppm, Table IVb, read-out: % Control at (ppm) indicated BOC
  inhibition of growth at 6 ppm: 0%
Botrytis cinerea (BOC); Table IVa, *=Phytotoxic, read-out: % Control at 25 ppm BOC
  inhibition of growth at 25 ppm: 100%
Botrytis cinerea (BOC); Table IVb, read-out: % Control at (ppm) indicated BOC
  inhibition of growth at 25 ppm: 100%
Botrytis cinerea (BOC); .2 ppm, Table IVb, read-out: % Control at (ppm) indicated BOC
  inhibition of growth at 0.2 ppm: 0%
Botrytis cinerea (BOC); .4 ppm, Table IVb, read-out: % Control at (ppm) indicated BOC
  inhibition of growth at 0.4 ppm: 0%
Botrytis cinerea (BOC); .8 ppm, Table IVb, read-out: % Control at (ppm) indicated BOC
  inhibition of growth at 0.8 ppm: 0%
Aspergillus niger (ANIG)
  MIC: 2 µg/mL (≈ 7.12 µM)
PSH; 1.5 ppm
  inhibition of growth at 1.5 ppm: 95%
PSH; 6 ppm
  inhibition of growth at 6 ppm: 100%
PSH; 25 ppm
  inhibition of growth at 25 ppm: 100%
PSH; .2 ppm
  inhibition of growth at 0.2 ppm: 0%
PSH; .4 ppm
  inhibition of growth at 0.4 ppm: 0%
PSH; .8 ppm
  inhibition of growth at 0.8 ppm: 0%
THREE FUNGI; Aspergillus niger, read-out: MIC ANIG
  MIC: 12.5 µg/mL (≈ 44.5 µM)
THREE FUNGI; Aureobasidium pullulans, read-out: MIC APUL
  MIC: 50 µg/mL (≈ 178 µM)
THREE FUNGI; Gloeophyllum trabeum, read-out: MIC GTRA
  MIC: 6.2 µg/mL (≈ 22.1 µM)
Septoria nodorum (SEP); 1.5 ppm, Table IVb, read-out: % Control at (ppm) indicated SEP
  inhibition of growth at 1.5 ppm: 0%
Septoria nodorum (SEP); 6 ppm, Table IVb, read-out: % Control at (ppm) indicated SEP
  inhibition of growth at 6 ppm: 0%
Septoria nodorum (SEP); Table IVa, read-out: % Control at 25 ppm SEP
  inhibition of growth at 25 ppm: 100%
Septoria nodorum (SEP); Table IVb, read-out: % Control at (ppm) indicated SEP
  inhibition of growth at 25 ppm: 100%
Septoria nodorum (SEP); .2 ppm, Table IVb, read-out: % Control at (ppm) indicated SEP
  inhibition of growth at 0.2 ppm: 0%
Septoria nodorum (SEP); .4 ppm, Table IVb, read-out: % Control at (ppm) indicated SEP
  inhibition of growth at 0.4 ppm: 0%
Septoria nodorum (SEP); .8 ppm, Table IVb, read-out: % Control at (ppm) indicated SEP
  inhibition of growth at 0.8 ppm: 0%
[1]
  MIC: 63 µg/mL (≈ 224 µM)
Escherichia coli (ECOL)
  MIC: 63 µg/mL (≈ 224 µM)
MON; 1.5 ppm
  inhibition of growth at 1.5 ppm: 0%
MON; 6 ppm
  inhibition of growth at 6 ppm: 100%
MON; 25 ppm
  inhibition of growth at 25 ppm: 100%
MON; .2 ppm
  inhibition of growth at 0.2 ppm: 0%
MON; .4 ppm
  inhibition of growth at 0.4 ppm: 0%
MON; .8 ppm
  inhibition of growth at 0.8 ppm: 0%
8 FUNGI; 0.2 PPM
  ANIG growth: 0
  APUL growth: 0
  CGLO growth: 0
  CRES growth: 0
  GTRA growth: 0
  PFUN growth: 0
  RRUB growth: 0
  SSER growth: 0
8 FUNGI; 1.0 PPM
  ANIG growth: 0
  APUL growth: 0
  CGLO growth: 0
  CRES growth: 0
  GTRA growth: 0
  PFUN growth: 0
  RRUB growth: 0
  SSER growth: 0
8 FUNGI; 2.5 PPM
  ANIG growth: 0
  APUL growth: 0
  CGLO growth: 0
  CRES growth: 0
  GTRA growth: 0
  PFUN growth: 0
  RRUB growth: 0
  SSER growth: 0
8 FUNGI; 25 PPM
  ANIG growth: 1
  APUL growth: 1
  CGLO growth: 1
  CRES growth: 1
  GTRA growth: 1
  PFUN growth: 1
  RRUB growth: 1
  SSER growth: 1
[2]
  inhibition of growth at 25 ppm: 50%
Pythium ultimum (PYU); 1.5 ppm, Table IVb, read-out: % Control at (ppm) indicated PYU
  inhibition of growth at 1.5 ppm: 0%
Pythium ultimum (PYU); 6 ppm, Table IVb, read-out: % Control at (ppm) indicated PYU
  inhibition of growth at 6 ppm: 100%
Pythium ultimum (PYU); Table IVa, read-out: % Control at 25 ppm PYU
  inhibition of growth at 25 ppm: 100%
Pythium ultimum (PYU); Table IVb, read-out: % Control at (ppm) indicated PYU
  inhibition of growth at 25 ppm: 100%
Pythium ultimum (PYU); .2 ppm, Table IVb, read-out: % Control at (ppm) indicated PYU
  inhibition of growth at 0.2 ppm: 0%
Pythium ultimum (PYU); .4 ppm, Table IVb, read-out: % Control at (ppm) indicated PYU
  inhibition of growth at 0.4 ppm: 0%
Pythium ultimum (PYU); .8 ppm, Table IVb, read-out: % Control at (ppm) indicated PYU
  inhibition of growth at 0.8 ppm: 0%
Piricularia oryzae (PIR); 1.5 ppm, read-out: % Control at (ppm) indicated PIR
  inhibition of growth at 1.5 ppm: 0%
Piricularia oryzae (PIR); 6 ppm, read-out: % Control at (ppm) indicated PIR
  inhibition of growth at 6 ppm: 100%
Piricularia oryzae (PIR); 25 ppm, read-out: % Control at (ppm) indicated PIR
  inhibition of growth at 25 ppm: 100%
Piricularia oryzae (PIR); .2 ppm, read-out: % Control at (ppm) indicated PIR
  inhibition of growth at 0.2 ppm: 0%
Piricularia oryzae (PIR); .4 ppm, read-out: % Control at (ppm) indicated PIR
  inhibition of growth at 0.4 ppm: 0%
Piricularia oryzae (PIR); .8 ppm, read-out: % Control at (ppm) indicated PIR
  inhibition of growth at 0.8 ppm: 0%
Piricularia oryzae (PIR); read-out: % Control at 25 ppm PIR
  inhibition of growth at 25 ppm: 100%
COL; 1.5 ppm
  inhibition of growth at 1.5 ppm: 0%
COL; 3 ppm
  inhibition of growth at 3 ppm: 0%
COL; 6 ppm
  inhibition of growth at 6 ppm: 0%
COL; 12 ppm
  inhibition of growth at 12 ppm: 0%
COL; 25 ppm
  inhibition of growth at 25 ppm: 50%
COL; .2 ppm
  inhibition of growth at 0.2 ppm: 0%
COL; .4 ppm
  inhibition of growth at 0.4 ppm: 0%
COL; .8 ppm
  inhibition of growth at 0.8 ppm: 0%
ALT; 1.5 ppm
  inhibition of growth at 1.5 ppm: 0%
ALT; 3 ppm
  inhibition of growth at 3 ppm: 0%
ALT; 6 ppm
  inhibition of growth at 6 ppm: 75%
ALT; 12 ppm
  inhibition of growth at 12 ppm: 100%
ALT; 25 ppm
  inhibition of growth at 25 ppm: 100%
ALT; .2 ppm
  inhibition of growth at 0.2 ppm: 0%
ALT; .4 ppm
  inhibition of growth at 0.4 ppm: 0%
ALT; .8 ppm
  inhibition of growth at 0.8 ppm: 0%
[3]
  MIC: 6.2 µg/mL (≈ 22.1 µM)
